Results: ChEMBL document CHEMBL3885861, “Open TG-GATES”

Species on record: Rattus norvegicus
Experiment: Open TG-GATES - Regimen: Single
Assay type: toxicity, organism-based, Sprague-Dawley
Parameters: regimen Single, gender Male, age 6 weeks
Conditions: in vivo, po, route gavage; for APTT / Bas / Eos / Fbg / Hb / Ht / Lym / MCH / MCHC / MCV / Mono / Neu / PT / Plat / RBC / Ret / WBC: tissue Blood; for KIDNEY_L / KIDNEY_R / KIDNEY_TOTAL: tissue Kidney; for LIVER: tissue Liver; for A/G / ALP / ALT / AST / BUN / CRE / Ca / Cl / DBIL / GLC / IP / K / LDH / Na / PL / RALB / TBIL / TC / TG / TP / gamma-GTP: tissue Plasma
[1] = 300 mg/kg, 3 h, dose level Middle
[2] = 300 mg/kg, 6 h, dose level Middle
[3] = 300 mg/kg, 9 h, dose level Middle
[4] = 300 mg/kg, 24 h, dose level Middle
[5] = 1000 mg/kg, 3 h, dose level High
[6] = 1000 mg/kg, 6 h, dose level High
[7] = 1000 mg/kg, 9 h, dose level High
[8] = 1000 mg/kg, 24 h, dose level High

CNC(=C[N+](=O)[O-])NCCSCc1ccc(CN(C)C)o1 [RANITIDINE]
TERMINAL_BW [1]: 216.6 g
APTT [1]: 21.3 s
Bas [1]: 0%
Eos [1]: 1.2%
Fbg [1]: 224 mg/dL
Hb [1]: 13.1 g/dL
Ht [1]: 38.4%
Lym [1]: 75.2%
MCH [1]: 21.7 pg
MCHC [1]: 34.2%
MCV [1]: 63.4 fL
Mono [1]: 2.4%
Neu [1]: 18.8%
PT [1]: 12.5 s
Plat [1]: 125.4 x10_4/uL
RBC [1]: 606 x10_4/ul
Ret [1]: 6.6%
WBC [1]: 93.9 x10_2/uL
KIDNEY_L [1]: 1 g
KIDNEY_R [1]: 1 g
KIDNEY_TOTAL [1]: 2 g
LIVER [1]: 9.9 g
A/G [1]: 1.7
ALP [1]: 1000.2 IU/L
ALT [1]: 34.4 IU/L
AST [1]: 63.8 IU/L
BUN [1]: 10.2 mg/dL
CRE [1]: 0.4 mg/dL
Ca [1]: 10.7 mg/dL
Cl [1]: 103.8 meq/L
DBIL [1]: 0.07 mg/dL
GLC [1]: 195.6 mg/dL
IP [1]: 8.4 mg/dL
K [1]: 3.8 meq/L
LDH [1]: 141.6 IU/L
Na [1]: 141.6 meq/L
PL [1]: 141.2 mg/dL
RALB [1]: 3.4 g/dL
TBIL [1]: 0.1 mg/dL
TC [1]: 74.2 mg/dL
TG [1]: 48 mg/dL
TP [1]: 5.5 g/dL
gamma-GTP [1]: 0.8 IU/L
TERMINAL_BW [2]: 214.7 g
APTT [2]: 18.8 s
Bas [2]: 0%
Eos [2]: 1%
Fbg [2]: 220.8 mg/dL
Hb [2]: 13.1 g/dL
Ht [2]: 37.8%
Lym [2]: 72.6%
MCH [2]: 21.6 pg
MCHC [2]: 34.7%
MCV [2]: 62.4 fL
Mono [2]: 2.4%
Neu [2]: 19.8%
PT [2]: 12.6 s
Plat [2]: 119.8 x10_4/uL
RBC [2]: 605 x10_4/ul
Ret [2]: 6.9%
WBC [2]: 82.1 x10_2/uL
KIDNEY_L [2]: 1 g
KIDNEY_R [2]: 1 g
KIDNEY_TOTAL [2]: 1.9 g
LIVER [2]: 9.2 g
A/G [2]: 1.6
ALP [2]: 918.8 IU/L
ALT [2]: 36.6 IU/L
AST [2]: 69.6 IU/L
BUN [2]: 8.4 mg/dL
CRE [2]: 0.4 mg/dL
Ca [2]: 10.4 mg/dL
Cl [2]: 103.6 meq/L
DBIL [2]: 0.06 mg/dL
GLC [2]: 193.4 mg/dL
IP [2]: 8.5 mg/dL
K [2]: 3.8 meq/L
LDH [2]: 111.4 IU/L
Na [2]: 140.4 meq/L
PL [2]: 129.2 mg/dL
RALB [2]: 3.3 g/dL
TBIL [2]: 0.1 mg/dL
TC [2]: 69.2 mg/dL
TG [2]: 43.2 mg/dL
TP [2]: 5.4 g/dL
gamma-GTP [2]: 1.4 IU/L
TERMINAL_BW [3]: 211.5 g
APTT [3]: 19.5 s
Bas [3]: 0%
Eos [3]: 1%
Fbg [3]: 241 mg/dL
Hb [3]: 13.3 g/dL
Ht [3]: 38.2%
Lym [3]: 67.8%
MCH [3]: 21.6 pg
MCHC [3]: 34.7%
MCV [3]: 62.3 fL
Mono [3]: 2.6%
Neu [3]: 26%
PT [3]: 12.7 s
Plat [3]: 116.8 x10_4/uL
RBC [3]: 614.4 x10_4/ul
Ret [3]: 7.2%
WBC [3]: 76 x10_2/uL
KIDNEY_L [3]: 1 g
KIDNEY_R [3]: 1 g
KIDNEY_TOTAL [3]: 1.9 g
LIVER [3]: 9.2 g
A/G [3]: 1.6
ALP [3]: 741.8 IU/L
ALT [3]: 32 IU/L
AST [3]: 61 IU/L
BUN [3]: 9.8 mg/dL
CRE [3]: 0.4 mg/dL
Ca [3]: 10.5 mg/dL
Cl [3]: 103.8 meq/L
DBIL [3]: 0.074 mg/dL
GLC [3]: 204.6 mg/dL
IP [3]: 8.4 mg/dL
K [3]: 3.6 meq/L
LDH [3]: 120.6 IU/L
Na [3]: 141.6 meq/L
PL [3]: 143.8 mg/dL
RALB [3]: 3.4 g/dL
TBIL [3]: 0.1 mg/dL
TC [3]: 76.4 mg/dL
TG [3]: 46 mg/dL
TP [3]: 5.6 g/dL
gamma-GTP [3]: 1.4 IU/L
TERMINAL_BW [4]: 230.2 g
APTT [4]: 23.9 s
Bas [4]: 0%
Eos [4]: 1%
Fbg [4]: 225.4 mg/dL
Hb [4]: 13.6 g/dL
Ht [4]: 38.7%
Lym [4]: 80.6%
MCH [4]: 22.5 pg
MCHC [4]: 35%
MCV [4]: 64.2 fL
Mono [4]: 2.4%
Neu [4]: 14%
PT [4]: 12.3 s
Plat [4]: 125.9 x10_4/uL
RBC [4]: 603.2 x10_4/ul
Ret [4]: 6.3%
WBC [4]: 104.2 x10_2/uL
KIDNEY_L [4]: 1 g
KIDNEY_R [4]: 1 g
KIDNEY_TOTAL [4]: 2 g
LIVER [4]: 11.2 g
A/G [4]: 1.7
ALP [4]: 1036.4 IU/L
ALT [4]: 33.4 IU/L
AST [4]: 63.2 IU/L
BUN [4]: 15.8 mg/dL
CRE [4]: 0.4 mg/dL
Ca [4]: 10.7 mg/dL
Cl [4]: 102.2 meq/L
DBIL [4]: 0.086 mg/dL
GLC [4]: 196.6 mg/dL
IP [4]: 7.6 mg/dL
K [4]: 4 meq/L
LDH [4]: 132.6 IU/L
Na [4]: 140 meq/L
PL [4]: 152.8 mg/dL
RALB [4]: 3.4 g/dL
TBIL [4]: 0.1 mg/dL
TC [4]: 79.2 mg/dL
TG [4]: 78.6 mg/dL
TP [4]: 5.3 g/dL
gamma-GTP [4]: 1 IU/L
TERMINAL_BW [5]: 218.6 g
APTT [5]: 21.3 s
Bas [5]: 0%
Eos [5]: 1%
Fbg [5]: 209 mg/dL
Hb [5]: 12.7 g/dL
Ht [5]: 36.7%
Lym [5]: 76.2%
MCH [5]: 21.7 pg
MCHC [5]: 34.7%
MCV [5]: 62.7 fL
Mono [5]: 2.4%
Neu [5]: 17.4%
PT [5]: 12.5 s
Plat [5]: 116.7 x10_4/uL
RBC [5]: 585.2 x10_4/ul
Ret [5]: 7.1%
WBC [5]: 84.3 x10_2/uL
KIDNEY_L [5]: 1 g
KIDNEY_R [5]: 1 g
KIDNEY_TOTAL [5]: 2.1 g
LIVER [5]: 10.5 g
A/G [5]: 1.7
ALP [5]: 944 IU/L
ALT [5]: 35.8 IU/L
AST [5]: 67.2 IU/L
BUN [5]: 9.4 mg/dL
CRE [5]: 0.4 mg/dL
Ca [5]: 10.5 mg/dL
Cl [5]: 104.4 meq/L
DBIL [5]: 0.064 mg/dL
GLC [5]: 181.2 mg/dL
IP [5]: 8.2 mg/dL
K [5]: 3.7 meq/L
LDH [5]: 148 IU/L
Na [5]: 141.4 meq/L
PL [5]: 133.6 mg/dL
RALB [5]: 3.3 g/dL
TBIL [5]: 0.1 mg/dL
TC [5]: 68 mg/dL
TG [5]: 44.8 mg/dL
TP [5]: 5.3 g/dL
gamma-GTP [5]: 1.2 IU/L
TERMINAL_BW [6]: 213.4 g
APTT [6]: 18.8 s
Bas [6]: 0%
Eos [6]: 1%
Fbg [6]: 232.8 mg/dL
Hb [6]: 13.4 g/dL
Ht [6]: 38%
Lym [6]: 72.8%
MCH [6]: 21.7 pg
MCHC [6]: 35.1%
MCV [6]: 62 fL
Mono [6]: 3%
Neu [6]: 18.4%
PT [6]: 12.7 s
Plat [6]: 106.2 x10_4/uL
RBC [6]: 613.8 x10_4/ul
Ret [6]: 7.1%
WBC [6]: 88.7 x10_2/uL
KIDNEY_L [6]: 0.9 g
KIDNEY_R [6]: 0.9 g
KIDNEY_TOTAL [6]: 1.9 g
LIVER [6]: 9.8 g
A/G [6]: 1.7
ALP [6]: 906.4 IU/L
ALT [6]: 37.2 IU/L
AST [6]: 63.8 IU/L
BUN [6]: 9.4 mg/dL
CRE [6]: 0.4 mg/dL
Ca [6]: 10.6 mg/dL
Cl [6]: 104 meq/L
DBIL [6]: 0.066 mg/dL
GLC [6]: 193.4 mg/dL
IP [6]: 8.3 mg/dL
K [6]: 3.6 meq/L
LDH [6]: 126.4 IU/L
Na [6]: 141 meq/L
PL [6]: 151.4 mg/dL
RALB [6]: 3.4 g/dL
TBIL [6]: 0.1 mg/dL
TC [6]: 80.8 mg/dL
TG [6]: 47.8 mg/dL
TP [6]: 5.4 g/dL
gamma-GTP [6]: 1.4 IU/L
TERMINAL_BW [7]: 210.2 g
APTT [7]: 20.1 s
Bas [7]: 0%
Eos [7]: 1%
Fbg [7]: 242.2 mg/dL
Hb [7]: 13.2 g/dL
Ht [7]: 38%
Lym [7]: 68.6%
MCH [7]: 21.8 pg
MCHC [7]: 34.8%
MCV [7]: 62.5 fL
Mono [7]: 2.4%
Neu [7]: 24.2%
PT [7]: 12.6 s
Plat [7]: 111.9 x10_4/uL
RBC [7]: 607.2 x10_4/ul
Ret [7]: 7.3%
WBC [7]: 74.1 x10_2/uL
KIDNEY_L [7]: 1 g
KIDNEY_R [7]: 1 g
KIDNEY_TOTAL [7]: 1.9 g
LIVER [7]: 9.2 g
A/G [7]: 1.6
ALP [7]: 955.2 IU/L
ALT [7]: 36 IU/L
AST [7]: 65.8 IU/L
BUN [7]: 8.8 mg/dL
CRE [7]: 0.3 mg/dL
Ca [7]: 10.6 mg/dL
Cl [7]: 103.8 meq/L
DBIL [7]: 0.066 mg/dL
GLC [7]: 197 mg/dL
IP [7]: 8.6 mg/dL
K [7]: 3.6 meq/L
LDH [7]: 126 IU/L
Na [7]: 140.8 meq/L
PL [7]: 152 mg/dL
RALB [7]: 3.4 g/dL
TBIL [7]: 0.1 mg/dL
TC [7]: 84.6 mg/dL
TG [7]: 30.2 mg/dL
TP [7]: 5.5 g/dL
gamma-GTP [7]: 1.2 IU/L
TERMINAL_BW [8]: 228.9 g
APTT [8]: 20.1 s
Bas [8]: 0.2%
Eos [8]: 1%
Fbg [8]: 235 mg/dL
Hb [8]: 13.9 g/dL
Ht [8]: 39.1%
Lym [8]: 79%
MCH [8]: 22.4 pg
MCHC [8]: 35.5%
MCV [8]: 63 fL
Mono [8]: 3.2%
Neu [8]: 15%
PT [8]: 11.7 s
Plat [8]: 122.4 x10_4/uL
RBC [8]: 621.4 x10_4/ul
Ret [8]: 5.9%
WBC [8]: 75.4 x10_2/uL
KIDNEY_L [8]: 1 g
KIDNEY_R [8]: 1 g
KIDNEY_TOTAL [8]: 2 g
LIVER [8]: 10.7 g
A/G [8]: 1.6
ALP [8]: 881.6 IU/L
ALT [8]: 33.2 IU/L
AST [8]: 60.4 IU/L
BUN [8]: 15.4 mg/dL
CRE [8]: 0.4 mg/dL
Ca [8]: 10.8 mg/dL
Cl [8]: 101.6 meq/L
DBIL [8]: 0.078 mg/dL
GLC [8]: 204.2 mg/dL
IP [8]: 7.9 mg/dL
K [8]: 3.7 meq/L
LDH [8]: 127.8 IU/L
Na [8]: 140.4 meq/L
PL [8]: 155.6 mg/dL
RALB [8]: 3.4 g/dL
TBIL [8]: 0.1 mg/dL
TC [8]: 84.4 mg/dL
TG [8]: 67.8 mg/dL
TP [8]: 5.6 g/dL
gamma-GTP [8]: 0.8 IU/L
